We go through 10 compounds from ChEMBL document CHEMBL1201862, “PubChem BioAssay data set” (2004).

The structures appear in SMILES notation.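 A five-concentration, 48-hour dose response in 96-well plates underlies each endpoint, interpolated linearly between surrounding concentrations. The concentration for 50% growth inhibition is given as GI50.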 The source made the active and inactive calls. Rule as the data show it: active = GI50 up to about 1.1 µM and inactive = higher. Bounds are passed on as bounds.

Holding throughout (test): NCI tumour cell line growth inhibition, 48 h
Assay [1] concerns EKVX.
For assay [2], the system named is NCI-H23.
For assay [3], the system named is UACC-62.
The test system of assay [4] is LOX IMVI.
Assay [5] has as its system U-251.
For assay [6], the system named is HOP-62.
Assay [7] has as its system OVCAR-8.
In assay [8] the test system is K562.
Assay [9] has as its system SK-MEL-28.
The test system of assay [10] is SR.
Assay [11] has as its system OVCAR-4.
Assay [12] relates to HCC 2998.
The subject of assay [13] is SF-539.
Assay [14] relates to NCI/ADR-RES.
Assay [15] deals with ACHN.
Assay [16] relates to Malme-3M.
Assay [17] concerns 786-0.
Assay [18] has as its system MDA-MB-435.
Assay [19] concerns T47D.
Assay [20] deals with SK-OV-3.

`CCN(CC)CCCNc1ccc2ncn3c4ccc(O)cc4c(=O)c1c23`: the GI50 in assay [1] was 7.41 µM (inactive); in assay [2], 2.19 µM (inactive); in [3] it was 3.21 µM (inactive); in assay [4], 0.392 µM (active); in assay [5] it was 1.66 µM (inactive); in [6], 0.989 µM (active). The GI50 is 0.467 µM (active) in [7]; 1.04 µM (active) in assay [8]; 12.4 µM (inactive) in assay [9]; 0.171 µM (active) in assay [10]; 1.01 µM (active) in assay [11]; 2.15 µM (inactive) in assay [12]. Besides, the GI50 is 2.9 µM (inactive) in assay [13]; > 10 µM (inactive) in assay [14]; 0.272 µM (active) in assay [15]; 4.78 µM (inactive) in [16]; 0.643 µM (active) in assay [17]; > 10 µM (inactive) in assay [18]. Besides, the GI50 is > 10 µM (inactive) in assay [19] and 0.527 µM (active) in assay [20].

Regarding `CCCCCC(=O)Nc1[nH]nnc1C#N`, the GI50 in assay [1], in [2], in [3], in [4], in assay [5] and in assay [6] was > 100 µM (inactive) each time. Moreover, the GI50 in assay [7], in assay [8], in assay [9], in assay [10], in assay [11] and in assay [12] was > 100 µM (inactive) throughout. The GI50 in assay [13], in [14], in [15], in assay [16], in [17] and in assay [18] was > 100 µM (inactive) each time. For the same compound, the GI50 in assay [19] and in [20] was > 100 µM (inactive) in each case.

`NC(=O)c1nnsc1N/N=C/c1ccc([N+](=O)[O-])cc1`: the GI50 in assay [1], in assay [2], in [3], in [4], in [5] and in assay [6] was > 100 µM (inactive) each time. The GI50 in [7] was > 100 µM (inactive); in assay [8], > 100 µM (inactive); in assay [9], > 100 µM (inactive); in [10] it was 33.9 µM (inactive); in assay [11], > 100 µM (inactive); in [12] it was > 100 µM (inactive). Further, the GI50 in [13] was > 100 µM (inactive); in assay [14], > 100 µM (inactive); in assay [15], > 100 µM (inactive); in [16] it was > 100 µM (inactive); in [17] it was 41 µM (inactive); in assay [18] it was 76.9 µM (inactive). Besides, the GI50 in [19] and in assay [20] was > 100 µM (inactive) in each case.

Take `COC(=O)/C=C1/OC(c2ccc(C)cc2C)=CC1=O`: the GI50 in assay [1] was 65 µM (inactive); in [2], 24.5 µM (inactive); in [3] it was 10.6 µM (inactive); in [4], 6.17 µM (inactive); in [5], 17.4 µM (inactive); in assay [6], 25.2 µM (inactive). Also, the GI50 is 10 µM (inactive) in [7]; 2.81 µM (inactive) in assay [8]; 19.5 µM (inactive) in assay [9]; 3.4 µM (inactive) in assay [10]; > 10 µM (inactive) in [11]; 16.7 µM (inactive) in [12]. Also, the GI50 in [13] was 17.2 µM (inactive); in assay [14], 19.5 µM (inactive); in [15] it was 15.8 µM (inactive); in assay [16], 16.4 µM (inactive); in [17] it was 11 µM (inactive); in assay [18], 15.7 µM (inactive). The GI50 in assay [19] was 20.1 µM (inactive); in assay [20], 18.7 µM (inactive).

Take `Cn1c(-c2ccc(C=O)o2)ccc1-c1ccc(C=O)o1`: the GI50 in assay [1] is 54.1 µM (inactive); in assay [2], 45.7 µM (inactive); in assay [3], 74.1 µM (inactive); in assay [4] it was 31.7 µM (inactive); in assay [5], 40.7 µM (inactive); in assay [6], 45.3 µM (inactive). The GI50 in [7] was 30.4 µM (inactive); in [8] it was 35.5 µM (inactive); in [9], 40.1 µM (inactive); in [10], 30.9 µM (inactive); in assay [11], 53.1 µM (inactive); in [12], > 100 µM (inactive). Further, the GI50 in [13] was 34.5 µM (inactive); in [14] it was 35.7 µM (inactive); in [15] it was 31.7 µM (inactive); in assay [16], 31.7 µM (inactive); in [17], 61.1 µM (inactive); in assay [18], 38.6 µM (inactive). Besides, the results for the GI50 in [19] and in assay [20] were 26.1 µM (inactive) and > 100 µM (inactive), respectively.

For `CCOP(=O)(OCC)C(NC(=O)C(C(F)(F)F)C(F)(F)F)c1ccccc1` (stereo not given), the GI50 in [1], in [2], in assay [3], in assay [4], in assay [5] and in [6] was > 100 µM (inactive) each time. For the same compound, the GI50 in assay [7] was > 100 µM (inactive); in assay [8] it was 61.2 µM (inactive); in assay [9], > 100 µM (inactive); in assay [10], 59.6 µM (inactive); in assay [11], > 100 µM (inactive); in assay [12], > 100 µM (inactive). Further, the GI50 in assay [13], in assay [14], in assay [15], in [16], in assay [17] and in assay [18] was > 100 µM (inactive) throughout. For the same compound, the GI50 is 84.1 µM (inactive) in assay [19] and > 100 µM (inactive) in assay [20].

As for `C[C@@H]1O[C@@H]2OCC[C@@H]2C2=C1C(=O)c1ccccc1C2=O`, the GI50 in [1] is 19.8 µM (inactive); in assay [2], 4.88 µM (inactive); in [3] it was 4.35 µM (inactive); in assay [4], 1.92 µM (inactive); in [5] it was 7.53 µM (inactive); in assay [6], 17.3 µM (inactive). For the same compound, the GI50 in assay [7] was 6.85 µM (inactive); in assay [8] it was 10.1 µM (inactive); in assay [9], 13.9 µM (inactive); in assay [10], 4.24 µM (inactive); in assay [11], 4.14 µM (inactive); in assay [12], 17.9 µM (inactive). Further, the GI50 was 8.85 µM (inactive) in assay [13]; 2.02 µM (inactive) in assay [14]; 12.2 µM (inactive) in [15]; 2.19 µM (inactive) in assay [16]; 12.3 µM (inactive) in assay [17]; 1.94 µM (inactive) in assay [18]. The GI50 in assay [19] is 5.12 µM (inactive); in assay [20], 28.4 µM (inactive).

With `NC(CS)C(=O)NCCNc1ccc(NCCNC(=O)C(N)CS)c2c1C(=O)c1c(O)ccc(O)c1C2=O` (stereo not given), the GI50 in assay [1] was 0.32 µM (active); in [2], 0.0115 µM (active); in [3], 0.0223 µM (active); in [4], 0.0185 µM (active); in [5] it was 0.00579 µM (active); in assay [6], 0.00361 µM (active). In addition, the GI50 was 0.0225 µM (active) in assay [7]; 0.0468 µM (active) in assay [8]; 0.628 µM (active) in [9]; < 0.001 µM (active) in assay [10]; 0.204 µM (active) in assay [11]; 0.225 µM (active) in assay [12]. Moreover, the GI50 in assay [13] is 0.0259 µM (active); in assay [14] it was 0.126 µM (active); in [15] it was 0.00865 µM (active); in assay [16] it was 0.0653 µM (active); in assay [17], 0.00662 µM (active); in assay [18] it was 0.483 µM (active). Also, the results for the GI50 in assay [19] and in [20] were 0.166 µM (active) and 0.0124 µM (active), respectively.

Consider `Nc1ccc(Cc2ccc(N)c(C(=O)O)c2)cc1C(=O)O`, for which the GI50 in [1], in assay [2], in assay [3], in assay [4], in assay [5] and in [6] was > 100 µM (inactive) in each case. In addition, the GI50 in assay [7], in assay [8], in [9], in [10], in assay [11] and in assay [12] was > 100 µM (inactive) throughout. Moreover, the GI50 in assay [13], in [14], in assay [15], in assay [16], in assay [17] and in [18] was > 100 µM (inactive) in each case. In addition, the GI50 in assay [19] and in assay [20] was > 100 µM (inactive) in each case.

Take `COc1ccccc1N1CCN(CCCCNC(=O)c2ccc([N+](=O)[O-])o2)CC1`: the GI50 in assay [1] is 16 µM (inactive); in [2] it was 5.79 µM (inactive); in assay [3], 5.93 µM (inactive); in assay [4], 1.12 µM (active); in [5], 7.55 µM (inactive); in assay [6], 5.18 µM (inactive). Moreover, the GI50 in [7] was 10.6 µM (inactive); in assay [8], 12.4 µM (inactive); in assay [9], 25.1 µM (inactive); in [10] it was 5.61 µM (inactive); in [11], 12.5 µM (inactive); in assay [12], 2.42 µM (inactive). The GI50 was 6.1 µM (inactive) in assay [13]; 20 µM (inactive) in [14]; 11.7 µM (inactive) in assay [15]; 2.81 µM (inactive) in assay [16]; 6.82 µM (inactive) in assay [17]; 3.36 µM (inactive) in assay [18]. Also, the GI50 was 14.3 µM (inactive) in assay [19] and 15.9 µM (inactive) in assay [20].
